From US4476120A, “Thiolic derivatives of erythromycin having therapeutic activity, and pharmaceutical compositions containing them” (Sigma Tau Indistrie Farmaceutiche Riunites, p.A, priority 1982, dated 1984)
Values after ≈ are worked out from the molar mass of the structure shown.

What was measured:
C. diphtheriae SS 19 = type: cell-based; settings: Brain Heart Infusion, estolate and RV11-RV15 previously hydrolized, unit assumed
[1] = tested on: Strept. haemolyticus SS 17; type: cell-based; settings: Brain Heart Infusion, estolate and RV11-RV15 previously hydrolized, unit assumed
E. aerogenes SS 011 = type: cell-based; settings: Brain Heart Infusion, estolate and RV11-RV15 previously hydrolized, unit assumed
D. pneumoniae SS 23 [2] = type: cell-based; settings: Brain Heart Infusion, estolate and RV11-RV15 previously hydrolized, unit assumed
Ps. aeruginosa SS 10 = type: cell-based; settings: Brain Heart Infusion, estolate and RV11-RV15 previously hydrolized, unit assumed
Pr. vulgaris SS 10 = type: cell-based; settings: Brain Heart Infusion, estolate and RV11-RV15 previously hydrolized, unit assumed
N. meningitidis SS 04 = type: cell-based; settings: Brain Heart Infusion, estolate and RV11-RV15 previously hydrolized, unit assumed
H. influentiae SS 02 = type: cell-based; settings: Brain Heart Infusion, estolate and RV11-RV15 previously hydrolized, unit assumed
B. cereus ATCC 11778 = type: cell-based; settings: Brain Heart Infusion, estolate and RV11-RV15 previously hydrolized, unit assumed
Br. melitensis SS 19 = type: cell-based; settings: unit assumed
Strept. faecalis SS 19 = type: cell-based; settings: Brain Heart Infusion, estolate and RV11-RV15 previously hydrolized, unit assumed
D. pneumoniae SS 23 [3] = test: Experimental infection induced by D. pneumoniae SS 23; type: in vivo, Swiss white mice; settings: Streptococcus pneumoniae, SS23, in Mus musculus, po, 168 h, os; D. pneumoniae SS 23; mg/kg of erythromycin; survival after 7 days; read-out: ED50 (reliability limits)
Description: (§1) Swiss white mice of 20 g body weight were used, infected by parenteral administration of lethal amounts of pathogenic […] of Staph. aureus SS 07 and D. pneumoniae SS 23.
(§2) The antibiotics were administered at the time of injecting the infecting germ and 6 and 24 hours later. On the basis of the survival after 7 days, the ED50 values were determined, as reported in the following table II and III, wherein the reliability limits are indicated in brackets.

Staph. albus SS 03 = type: cell-based; settings: Brain Heart Infusion, estolate and RV11-RV15 previously hydrolized, unit assumed
Citrobacter SS 09 = type: cell-based; settings: Brain Heart Infusion, estolate and RV11-RV15 previously hydrolized, unit assumed
B. anthranis SS 09 = type: cell-based; settings: B. anthranis SS 09 (14 bis); Brain Heart Infusion; estolate and RV11-RV15 previously hydrolized; unit assumed
B. subtilis ATCC 6633 = type: cell-based; settings: Brain Heart Infusion, estolate and RV11-RV15 previously hydrolized, unit assumed
Staph. aureus SS 08 = type: cell-based; settings: Brain Heart Infusion, estolate and RV11-RV15 previously hydrolized, unit assumed
Citrobacter SS 05 = type: cell-based; settings: Brain Heart Infusion, estolate and RV11-RV15 previously hydrolized, unit assumed
E. coli SS 04 = type: cell-based; settings: Brain Heart Infusion, estolate and RV11-RV15 previously hydrolized, unit assumed
Br. abortus SS 7 = type: cell-based; settings: Brain Heart Infusion, estolate and RV11-RV15 previously hydrolized, unit assumed
H. pertussis SS 03 = type: cell-based; settings: Brain Heart Infusion, estolate and RV11-RV15 previously hydrolized, unit assumed
N. gonorreae SS 27 = type: cell-based; settings: Brain Heart Infusion, estolate and RV11-RV15 previously hydrolized, unit assumed
B. anthranis SS 08 = type: cell-based; settings: Brain Heart Infusion, estolate and RV11-RV15 previously hydrolized, unit assumed
S. heidelberg SS 18 = type: cell-based; settings: Brain Heart Infusion, estolate and RV11-RV15 previously hydrolized, unit assumed
E. coli SS 05 = type: cell-based; settings: Brain Heart Infusion, estolate and RV11-RV15 previously hydrolized, unit assumed
Cl. tetani SS 17 = type: cell-based; settings: Brain Heart Infusion, estolate and RV11-RV15 previously hydrolized, unit assumed
Staph. aureus SS 07 [4] = type: cell-based; settings: Brain Heart Infusion, estolate and RV11-RV15 previously hydrolized, unit assumed
Staph. aureus SS 10 = type: cell-based; settings: Brain Heart Infusion, estolate and RV11-RV15 previously hydrolized, unit assumed
Pr. mirabilis SS 09 = type: cell-based; settings: Brain Heart Infusion, estolate and RV11-RV15 previously hydrolized, unit assumed
E. coli SS 07 = type: cell-based; settings: Brain Heart Infusion, estolate and RV11-RV15 previously hydrolized, unit assumed
Sr. marcescens SS 03 = type: cell-based; settings: Brain Heart Infusion, estolate and RV11-RV15 previously hydrolized, unit assumed
Acute toxicity = type: in vivo; settings: mouse, in vivo, po; os; mortality 10 days after treatment; mice; read-out: LD50 (reliability limits)
Description: The acute toxicity was assessed in Swiss white mice by oral and intravenous route. The LD50 values have been calculated by the methods of Probits, starting from the mortality recorded 10 days after the treatment.

Kl. aerogenes SS 71 = type: cell-based; settings: Brain Heart Infusion, estolate and RV11-RV15 previously hydrolized, unit assumed
S. infantis SS 08 = type: cell-based; settings: Brain Heart Infusion, estolate and RV11-RV15 previously hydrolized, unit assumed
E. cloacae SS 07 = type: cell-based; settings: Brain Heart Infusion, estolate and RV11-RV15 previously hydrolized, unit assumed
Kl. pneumoniae SS 04 = type: cell-based; settings: Brain Heart Infusion, estolate and RV11-RV15 previously hydrolized, unit assumed
Description: (§3) In the following table I the MIC/ml values are indicated corresponding to the lowest concentration capable of inducing a complete inhibition of the bacterial development.

H. tubercolosis SS 03 = type: cell-based; settings: Brain Heart Infusion, estolate and RV11-RV15 previously hydrolized, unit assumed
Description: as §3

B. subtilis SS 127 = type: cell-based; settings: Brain Heart Infusion, estolate and RV11-RV15 previously hydrolized, unit assumed
E. coli SS 06 = type: cell-based; settings: Brain Heart Infusion, estolate and RV11-RV15 previously hydrolized, unit assumed
Staph. aureus SS 07 [5] = test: Experimental infection induced by Staph. aureus SS 07; type: in vivo, Swiss white mice; settings: Staphylococcus aureus, SS07, in Mus musculus, po, 168 h, os; Staph. aureus SS 07; mg/kg of erythromycin; survival after 7 days; read-out: ED50 (reliability limits)
Description: as §1, §2

Staph. aureus SS 09 = type: cell-based; settings: Brain Heart Infusion, estolate and RV11-RV15 previously hydrolized, unit assumed
Staph. albus SS 04 = type: cell-based; settings: Brain Heart Infusion, estolate and RV11-RV15 previously hydrolized, unit assumed
S. lutea ATCC 9341 = type: cell-based; settings: Brain Heart Infusion, estolate and RV11-RV15 previously hydrolized, unit assumed
C. albicans SS 04 = type: cell-based; settings: Brain Heart Infusion, estolate and RV11-RV15 previously hydrolized, unit assumed
[6] = tested on: Strept. haemolyticus SS 18; type: cell-based; settings: Brain Heart Infusion, estolate and RV11-RV15 previously hydrolized, unit assumed
[7] = Hematic levels in the rat (absorption by oral route); settings: 100 mg/kg as erythromycin, average, 100 mg/kg

## CC[C@H]1OC(=O)[C@H](C)[C@@H](O[C@H]2C[C@@](C)(OC)[C@@H](O)[C@H](C)O2)[C@H](C)[C@@H](O[C@@H]2O[C@H](C)C[C@H](N(C)C)[C@H]2O)[C@](C)(O)C[C@@H](C)C(=O)[C@H](C)[C@@H](O)[C@]1(C)O [erythromycin]
C. diphtheriae SS 19
  MIC: 0.01 µg/mL (≈ 0.0136 µM)
[1]
  MIC: 3 µg/mL (≈ 4.09 µM)
E. aerogenes SS 011
  MIC: 100 µg/mL (≈ 136 µM)
D. pneumoniae SS 23 [2]
  MIC: 0.05 µg/mL (≈ 0.0681 µM)
Ps. aeruginosa SS 10
  MIC: 100 µg/mL (≈ 136 µM)
Pr. vulgaris SS 10
  MIC: > 200 µg/mL
N. meningitidis SS 04
  MIC: 0.8 µg/mL (≈ 1.09 µM)
H. influentiae SS 02
  MIC: 1.5 µg/mL (≈ 2.04 µM)
B. cereus ATCC 11778
  MIC: 0.4 µg/mL (≈ 0.545 µM)
Br. melitensis SS 19
  MIC: 3 µg/mL (≈ 4.09 µM)
Strept. faecalis SS 19
  MIC: 0.1 µg/mL (≈ 0.136 µM)
D. pneumoniae SS 23 [3]
  ED50: 114 mg/kg
Staph. albus SS 03
  MIC: 0.05 µg/mL (≈ 0.0681 µM)
Citrobacter SS 09
  MIC: > 200 µg/mL
B. anthranis SS 09
  MIC: 0.4 µg/mL (≈ 0.545 µM)
B. subtilis ATCC 6633
  MIC: 0.025 µg/mL (≈ 0.0341 µM)
Staph. aureus SS 08
  MIC: 0.025 µg/mL (≈ 0.0341 µM)
Citrobacter SS 05
  MIC: > 200 µg/mL
E. coli SS 04
  MIC: 100 µg/mL (≈ 136 µM)
Br. abortus SS 7
  MIC: 12 µg/mL (≈ 16.4 µM)
H. pertussis SS 03
  MIC: 0.4 µg/mL (≈ 0.545 µM)
N. gonorreae SS 27
  MIC: 0.8 µg/mL (≈ 1.09 µM)
B. anthranis SS 08
  MIC: 0.4 µg/mL (≈ 0.545 µM)
S. heidelberg SS 18
  MIC: 100 µg/mL (≈ 136 µM)
E. coli SS 05
  MIC: 50 µg/mL (≈ 68.1 µM)
Cl. tetani SS 17
  MIC: 0.4 µg/mL (≈ 0.545 µM)
Staph. aureus SS 07 [4]
  MIC: 0.025 µg/mL (≈ 0.0341 µM)
Staph. aureus SS 10
  MIC: 0.1 µg/mL (≈ 0.136 µM)
Pr. mirabilis SS 09
  MIC: > 200 µg/mL
E. coli SS 07
  MIC: 50 µg/mL (≈ 68.1 µM)
Sr. marcescens SS 03
  MIC: 200 µg/mL (≈ 273 µM)
Acute toxicity
  LD50 at 240 h: > 3000 mg/kg
Kl. aerogenes SS 71
  MIC: 50 µg/mL (≈ 68.1 µM)
S. infantis SS 08
  MIC: 100 µg/mL (≈ 136 µM)
E. cloacae SS 07
  MIC: > 200 µg/mL
Kl. pneumoniae SS 04
  MIC: 100 µg/mL (≈ 136 µM)
H. tubercolosis SS 03
  MIC: 50 µg/mL (≈ 68.1 µM)
B. subtilis SS 127
  MIC: 0.05 µg/mL (≈ 0.0681 µM)
E. coli SS 06
  MIC: 100 µg/mL (≈ 136 µM)
Staph. aureus SS 07 [5]
  ED50: 2.09 mg/kg
Staph. aureus SS 09
  MIC: 0.1 µg/mL (≈ 0.136 µM)
Staph. albus SS 04
  MIC: 0.05 µg/mL (≈ 0.0681 µM)
S. lutea ATCC 9341
  MIC: 0.01 µg/mL (≈ 0.0136 µM)
C. albicans SS 04
  MIC: 100 µg/mL (≈ 136 µM)
[6]
  MIC: 1.5 µg/mL (≈ 2.04 µM)
[7]; 2 hours, 120 min
  Hematic levels in the rat: 1.15 µg/mL
[7]; 6 hours, 360 min
  Hematic levels in the rat: 0.03 µg/mL
[7]; rat, blood, po, Hematic levels in the rat, 0.30 hours
  concentration at 0.3 h: 710 ng/mL
[7]; rat, blood, po, Hematic levels in the rat, 1 hour
  concentration at 1 h: 1030 ng/mL
[7]; rat, blood, po, Hematic levels in the rat, 3 hours
  concentration at 3 h: 1050 ng/mL
[7]; rat, blood, po, Hematic levels in the rat, 4 hours
  concentration at 4 h: 370 ng/mL
[7]; rat, blood, po, Hematic levels in the rat, 5 hours
  concentration at 5 h: 260 ng/mL
